Data: patent publication US20240173276A1, “METHODS AND COMPOSITIONS FOR INHIBITING FORMATION OF THE HIV LATENT RESERVOIR” (The University of North Carolina at Chapel Hill, priority 2021, published 2024)

Key:
[1] = test system: HIV-GFP infected primary CD4 T cells; assay: Primary CD4 T cell latency model (HIV-GFP reporter, flow cytometry of GFP- cells); assay type: cell-based, human; conditions: for effect on the formation of latently infected (GFP-) cells: cultured in the presence of inhibitor from 2 dpi for up to 4 weeks, FIG. 1B
From the text: Viruses and cell culture: Stocks of HIV-GFP were generated by co-transfection of 293T cells with the pNL4-3-Δ6-dreGFP plasmid (generous gift of Robert Siliciano) and the packaging plasmids PAX2-GagPol) and MD2-VSVG, using Mirus LT1 reagent. At 2 days post transfection virus was harvested from the supernatant and clarified by low speed centrifugation, followed by filtration through a […] filter.
Primary cell latency model: Primary CD4 T cells were isolated from fresh whole blood (purchased from Gulf Coast Regional Blood Center) by Ficoll isolation of peripheral blood mononuclear cells (PBMCs), then magnetic negative selection of CD4 T cells using a CD4 enrichment kit (Stem Cell). Total primary CD4 T cells were activated using anti-CD3/CD28 beads (Thermo Fisher) at a ratio of one bead per cell for 2 days, then infected with HIV-GFP viral supernatant by spinocculation for 2 hrs at 600 g with 4 µg/mL polybrene. The infected cells were then resuspended in fresh RPMI with IL-2 (Peprotech) at 100 U/mL and incubated for two days before actively infected (GFP^+) cells were sorted using a FACSAria flow sorter (Becton Dickson). The purified infected cells (GFP^+) were then maintained at 1-2 million/mL with fresh media and IL-2 added every 2-3 days for 2 weeks. […] Other small molecule inhibitors were purchased from commercial vendors.
HIV latency is regulated by covalent modifications to provirus-associated histones that can promote or repress transcription. These modifications are mediated by a set of host cell enzyme complexes, including histone acetyl transferases (HATs), histone deacetylases (HDACs), histone methyltransferases (HMTs) and histone demethylases (HDMs). To investigate the role of these complexes in the establishment of HIV latency a primary CD4 T cell model of latency was examined. In this model, activated CD4 T cells are infected with a GFP expressing reporter strain of HIV. At 2 dpi, actively infected cells (GFP^+) are sorted to obtain a pure actively infected population, then cultured for 3-4 weeks (FIG. 1A). […] To examine the role of specific histone modifying enzymes in this system, actively infected (GFP^+) cells were isolated at 2 dpi and the cells cultured in the presence of a panel of inhibitors targeting chromatin modifying complexes. […] The infected cells were cultured in the presence of each inhibitor for up to 4 weeks. Each week post infection, the emergence of the latently infected (GFP^−) population was measured by flow cytometry (FIG. 1B).

[2] = test system: HIV-dreGFP/Thy1.2 infected primary CD4 T cells; assay: HDAC selective inhibitor experiments in HIV-dreGFP/Thy1.2 infected CD4 T cells (viral gene expression by flow cytometry); assay type: cell-based, human; conditions: cultured 14 d in the presence of inhibitor; FIG. 7B
From the text: FIGS. 7A-7D show Class I HDAC selective inhibitors reveal druggable dependency on HDAC1 and 2 in latency initiation. A. Schematic overview of HDAC selective inhibitor experiments. […] B. Dose response curve showing the proportion of cells with productive viral gene expression after two weeks of treatment with the indicated inhibitors. Data shown are from one representative cell donor conducted in technical triplicate. C. Time course flow cytometry experiment in HIV-GFP/Thy1.2 infected primary CD4 T cells cultured with the indicated inhibitors. […] D. Mean fluorescent intensity (MFI) of GFP signal in Thy1.2+ cells in data from C. Data shown are representative of three independent experiments.
However, the contribution and roles of individual HDACs are largely unknown. Because of the high homology of HDAC1 and HDAC2 in the enzyme activation site, selective inhibitors for HDAC1 or HDAC2 have not been developed. Thus, the impact of novel small molecules that inhibit both HDAC1 and HDAC2 (HDAC1/2i) or HDAC3 (HDAC3i) on HIV silencing in CD4 T cells was examined. Activated CD4 T cells were infected with HIV-dreGFP/Thy1.2 and cultured for 14 d in the presence of each inhibitor, and viral gene expression was measured by flow cytometry (FIG. 7A).

[3] = test system: HIV-eGFP infected CD4 T cells; assay: Surface marker phenotype of HIV infected CD4 T cells by flow cytometry; assay type: cell-based, human; conditions: vorinostat exposure post stimulation, vs DMSO, FIG. 4
Protocol: HIV gene expression is regulated by a set of host cell transcription factors that vary in activity as CD4 T cells adopt different activation states and sub-lineage identities post activation. […] To investigate this possibility, flow cytometry was performed to examine the surface marker phenotype of HIV infected cells.

[4] = previous clinical studies, vorinostat dosing; cited from earlier work

COc1cc2nc(N3CCCN(C)CC3)nc(NC3CCN(Cc4ccccc4)CC3)c2cc1OC [BIX1294]
effect on the formation of latently infected (GFP-) cells [1]: modest reduction in the percentage of latently infected cells

Nc1cc(F)ccc1NC(=O)/C=C/c1cnn(C/C=C/c2ccccc2)c1 [RGFP966]
latency prevention (prevention of HIV silencing), dose response [2]: much lower extent

Nc1ncnc2c1ncn2[C@@H]1O[C@H](C[C@@H](N)CC[C@H](N)C(=O)O)[C@@H](O)[C@H]1O [Singefungin, sinefungin]
effect on the formation of latently infected (GFP-) cells [1]: no significant effect

CCCc1cc(C)[nH]c(=O)c1CNC(=O)c1cc(-c2ccc(N3CCN(C(C)C)CC3)nc2)cc2c1cnn2C(C)C [UNC1999]
effect on the formation of latently infected (GFP-) cells [1]: modest reduction in the percentage of latently infected cells

CC(C)N(C[C@H]1O[C@@H](n2cnc3c(N)ncnc32)[C@H](O)[C@@H]1O)[C@H]1C[C@@H](CCc2nc3cc(C(C)(C)C)ccc3[nH]2)C1 [pinometostat]
effect on the formation of latently infected (GFP-) cells [1]: no significant effect

O=C(CCCCCCC(=O)Nc1ccccc1)NO [vorinostat]
GFP status of treated cells after removal of vorinostat ([1]; 2 weeks vorinostat, then 2 weeks culture without vorinostat, FIG. 2A): remained mostly GFP^−
percentage of latent (GFP-) cells ([1]; 3 weeks post infection, in the presence of vorinostat, DMSO 70%): 10%
reduction of latent (GFP-) population vs vehicle (DMSO) ([1]; 3 weeks post infection, from 70% (DMSO) to 10%): 7 fold
impact on HIV latency, vorinostat in media 0-14 days post infection ([1]; add in / wash out, latently infected cells measured at 3 wpi, FIG. 2B): significant impact
impact on frequency of latently infected cells, addition or removal between 14 dpi and 21 dpi ([1]; add in / wash out, measured at 3 wpi, FIG. 2B): little impact
emergence of latently infected cells, continuous exposure ([1]; continuous vorinostat 500 nM, 3 weeks post infection, FIG. 1C): potently prevented the emergence of latently infected cells
effect on the formation of latently infected (GFP-) cells [1]: potently inhibited the emergence of a latent (GFP^−) population
establishment of latency, pulsatile exposure ([1]; daily 6 h pulse of vorinostat 500 nM followed by 18 h wash-out, 3 weeks, FIG. 1C): significantly block the establishment of latency in a subset of cells
suppression of HIV latency over a range of concentrations ([1]; exposure for two weeks to different vorinostat concentrations, FIG. 2A): clear dose-dependent fashion
fraction of cells with central memory phenotype (CD45RA- CCR7+) ([3]; 2-3 weeks post infection): increased fraction
expression of CD4 T cell activation marker PD-1 [3]: did not lead to increased expression
time of declining concentrations [4]: 6 to 24 h
time of peak concentrations [4]: 2 to 6 h
